Reference: PubChem BioAssay AID1596 (NINDS Approved Drug Screening Program, 2009)
Results filed as inconclusive are left out.

Each compound was assayed on PC12 polyQ huntingtin toxicity, LDH release (assay: protection from polyQ Htt cytotoxicity, dose response, PC12 cells, LDH release, LDH100 (AID 1596)).

SMILES	EC50 [µM]
OCCN1CCN(CCCN2c3ccccc3Sc3ccc(Cl)cc32)CC1	100
Cc1ccc(C(=O)C(C)CN2CCCCC2)cc1 (stereo unspecified)	6
O=C1C=C2C(=CCOC2O)O1 (stereo unspecified)	1
COc1ccc(C[C@H](N)C(=O)N[C@@H]2[C@@H](CO)OC(n3cnc4c(N(C)C)ncnc43)[C@@H]2O)cc1 (stereo partly specified)	10
O=C(c1ccccc1)c1ccc2n1CCC2C(=O)O (stereo unspecified)	8
C[C@@H]1C[C@@H]([C@H](O)CC2CC(=O)NC(=O)C2)C(=O)[C@@H](C)C1	0.2
C=C1C(=O)OC2C1CCC1(C)CCC=C(C)C21 (stereo unspecified)	4
CC(Cc1ccc(O)c(O)c1)C(C)Cc1ccc(O)c(O)c1 (stereo unspecified)	8
CC[C@@]1(O)C[C@H](OC2CC(N(C)C)C(OC3CC(O)C(OC4CCC(=O)C(C)O4)C(C)O3)C(C)O2)c2c(cc3c(c2O)C(=O)c2c(O)cccc2C3=O)[C@H]1C(=O)OC (stereo partly specified)	4
CCCCCCCCCCCCCCCCCC(=O)OC(CC(=O)O)C[N+](C)(C)C (stereo unspecified)	100
O=c1cc(-c2ccc(O)cc2)oc2cc(O)cc(O)c12	40
CN(C)[C@@H]1C(=O)C(C(N)=O)=C(O)[C@@]2(O)C(=O)C3=C(O)c4c(O)cccc4[C@@](C)(O)[C@H]3[C@H](O)[C@@H]12	100
CC(C)CC1C(=O)N2CCC[C@H]2C2(O)O[C@](NC(=O)C3C=C4c5cccc6[nH]c(Br)c(c56)C[C@H]4N(C)C3)(C(C)C)C(=O)N12 (stereo partly specified)	30
CC(=O)OCC(=O)[C@@]1(O)[C@H](C)CC2C3CCC4=CC(=O)C=C[C@]4(C)[C@@]3(F)[C@@H](O)C[C@@]21C (stereo partly specified)	0.8
CC(C)C(=O)Nc1ccc([N+](=O)[O-])c(C(F)(F)F)c1	4
Cc1cc(C2CCCCC2)n(O)c(=O)c1	2.5
NCCCCNCCCN	8
CN(C)CCOC(c1ccc(Cl)cc1)c1ccccn1 (stereo unspecified)	1.5
CC(C)=CCC1=C(O)c2ccccc2C(=O)C1=O	100
CC(C)(C)c1ccc(C(O)CCCN2CCC(C(O)(c3ccccc3)c3ccccc3)CC2)cc1 (stereo unspecified)	8
COC12CC[C@@]3(C[C@@H]1C(C)(O)C(C)(C)C)[C@H]1Cc4ccc(O)c5c4[C@@]3(CCN1CC1CC1)[C@H]2O5 (stereo partly specified)	100
CC(C)=CCCC1(C)C=Cc2c(O)c3c(c(CC=C(C)C)c2O1)OC12C(=CC4CC1C(C)(C)OC2(C/C=C(/C)C(=O)O)C4=O)C3=O (stereo unspecified)	0.3

SMILES	EC50 [µM]
COc1cc2ccc(=O)oc2cc1O	30
CC[C@H]1OC(=O)[C@H](C)[C@@H](O[C@H]2C[C@@](C)(OC)[C@@H](O)[C@H](C)O2)[C@H](C)[C@@H](O[C@@H]2O[C@H](C)C[C@H](N(C)C)[C@H]2O)[C@](C)(O)C[C@@H](C)CN(C)[C@H](C)[C@@H](O)[C@]1(C)O	100
COc1ccc(-c2coc3cc(O)cc(O)c3c2=O)cc1	60
Oc1c(Cl)cc(Cl)cc1Sc1cc(Cl)cc(Cl)c1O	20
O=C(O)c1cc2cc(Cc3cccnc3)ccc2o1	20
Oc1c(Cl)cc(Cl)c(Cl)c1Cc1c(O)c(Cl)cc(Cl)c1Cl	10
CCCCCc1cc(O)c2c(c1)OC(C)(C)C1CC=C(C)CC21 (stereo unspecified)	40
CCOc1ccc2c(c1)C(C)=CC(C)(C)N2	8
CN[C@@H]1[C@H](OC2[C@H](O[C@H]3[C@H](O)[C@@H](O)[C@H](N=C(N)N)[C@@H](O)[C@@H]3N=C(N)N)O[C@@H](C)[C@]2(O)C=O)O[C@@H](CO)[C@H](O)[C@H]1O (stereo partly specified)	100
CN1CCc2cccc3c2C1Cc1ccc(O)c(O)c1-3 (stereo unspecified)	10
O=c1c2ccccc2[se]n1-c1ccccc1	6
CC[n+]1c(-c2ccccc2)c2cc(N)ccc2c2ccc(N)cc21	4
CO[C@@]12[C@@H]3NC3CN1C1=C(C(=O)C(N)=C(C)C1=O)[C@@H]2COC(N)=O (stereo partly specified)	2.5
CC(=O)Nc1ccc(S(=O)(=O)Nc2ccc([N+](=O)[O-])cc2)cc1	20
NC(=O)N/N=C/c1ccc([N+](=O)[O-])o1	20
CNC(=O)Oc1ccc2c(c1)[C@]1(C)CCN(C)[C@@H]1N2C	100
CC(NCCC(c1ccccc1)c1ccccc1)c1ccccc1 (stereo unspecified)	10
CCN(CC)CCNc1ccc(CO)c2sc3ccccc3c(=O)c12	4
CO/N=C(/C(=O)N[C@@H]1C(=O)N2C(C(=O)O)=C(COC(C)=O)CS[C@H]12)c1csc(N)n1	6
Nc1c2c(nc3ccccc13)CCCC2	60
CN(C)c1ccc(C(=C2C=CC(=[N+](C)C)C=C2)c2ccc(N(C)C)cc2)cc1	0.2
CC(NC(=O)C(NC(=O)OCc1ccccc1)C(C)C)C(=O)NC(CC(=O)O)C(=O)OC(F)F (stereo unspecified)	20

SMILES	EC50 [µM]
CO[C@@H]1C[C@@H](C[C@H]2CC[C@H](C)[C@H]([C@@H](C)C(=O)O)O2)O[C@]2(O[C@](C)([C@H]3CC[C@@](C)(C4O[C@@H](C5O[C@@](O)(CO)[C@H](C)C[C@@H]5C)C[C@@H]4C)O3)C[C@H]2C)[C@@H]1C (stereo partly specified)	4
CN1CCc2c(c3ccccc3n2Cc2ccccc2)C1	30
O=C(Nc1ccc([N+](=O)[O-])cc1Cl)c1cc(Cl)ccc1O	1
Oc1cccc2cccnc12	20
CC1(C)O[C@@H]2CC3C4C[C@H](F)C5=CC(=O)C=CC5(C)C4C(O)CC3(C)[C@]2(C(=O)CO)O1 (stereo partly specified)	100
O=NN(CCCl)C(=O)NCCCl	4
CCCCCc1cc(O)c2c(c1)OC(C)(C)C1CCC(C)=CC21 (stereo unspecified)	60
CCCCC[C@H](CC(=O)NO)C(=O)N[C@H](C(=O)N1CCC[C@H]1CO)C(C)C	100
C=C[C@H]1CN2CC[C@H]1C[C@@H]2[C@H](O)c1ccnc2ccccc12	60
C[C@@]1(C(=O)O)CC[C@]2(C)CC[C@]3(C)C4=CC=C5C=C(O)C(=O)C=C5[C@]4(C)CC[C@@]3(C)[C@@H]2C1	0.5
CNc1ccc2oc(C[C@@H]3OC4(CC[C@@H]3C)O[C@H](C(C)C(=O)c3ccc[nH]3)[C@H](C)C[C@H]4C)nc2c1C(=O)O (stereo partly specified)	0.8
O=C1C=CC(=C(c2ccc(O)cc2)c2ccc(O)cc2)C=C1	6
CCCCC(=O)OC1(C(=O)CO)C(C)CC2C3CCC4=CC(=O)C=CC4(C)[C@@]3(F)[C@@H](O)CC21C (stereo partly specified)	60
C[N+](C)(C)CCOC(N)=O	1
Nc1c(Br)cc(Br)cc1CNC1CCC(O)CC1 (stereo unspecified)	100
C[C@H]1c2cccc(O)c2C(O)=C2C(=O)[C@]3(O)C(O)=C(C(N)=O)C(=O)[C@@H](N(C)C)[C@@H]3[C@@H](O)[C@@H]21	60
OCC(S)CS (stereo unspecified)	10
NC(=NCc1ccccc1)NC(=O)c1nc(Cl)c(N)nc1N	100
CC(=O)c1c(O)c(C)c(O)c2c1OC1=CC(=O)C(C(C)=O)C(=O)C12C (stereo unspecified)	60
CCCCCc1cc(O)c2c(c1)OC(C)(C)c1ccc(C)cc1-2	40
O=c1[nH]c2ccccc2n1C1CCN(CCCC(c2ccc(F)cc2)c2ccc(F)cc2)CC1	30
CC(=O)Oc1ccc(Cl)c2cccnc12	8
